# Source: ChEMBL document CHEMBL1145740, “Novel alpha-amino-acid phenolic ester derivatives with intravenous anaesthetic activity” (Bioorg Med Chem Lett, 2003)
# Key:
# [1] = target: GABA-A receptor; anion channel; test: In vitro inhibition of [35S]TBPS binding to GABA-A receptor of rat whole brain membranes; format: cell membranes
# Mus musculus = test: Intravenous hypnotic dose that caused a loss of righting reflex for a minimum period of 30s in 50% of treated mice determined by probit analysis.; format: functional
SMILES,IC50 [1] [µM],HD50 (Mus musculus) [µM/kg]
COc1cc(C)cc(OC)c1OC(=O)C(CCS(C)(=O)=O)N1C=CCCC1 (stereo not given),6.2,39.3
COc1cccc(OC)c1OC(=O)C(CCS(C)(=O)=O)N1CCOCC1 (stereo not given),–,99
COC(=O)CC(C(=O)Oc1c(OC)cccc1OC)N1CCCCCC1 (stereo not given),4.2,22.9
COC(=O)CC(C(=O)Oc1c(OC)cc(C)cc1OC)N1CCCCC1 (stereo not given),14.7,48
COC(=O)CC(C(=O)Oc1c(OC)cc(C)cc1OC)N1CCOCC1 (stereo not given),–,46
COC(=O)CC(C(=O)Oc1c(OC)cccc1OC)N1CCCCC1 (stereo not given),11.7,26.4
COc1cc(C)cc(OC)c1OC(=O)C(CCSC)N1CCOCC1 (stereo not given),–,34.8
COCCN(CCOC)C(CCS(C)(=O)=O)C(=O)Oc1c(OC)cccc1OC (stereo not given),–,>106
COCCN(CCOC)C(CCS(C)(=O)=O)C(=O)Oc1c(OC)cc(C)cc1OC (stereo not given),–,77
COC(=O)CC(C(=O)Oc1c(OC)cc(C)cc1OC)N1CCCCCC1 (stereo not given),–,26
COC(=O)CC(C(=O)Oc1c(OC)cccc1OC)N1CCOCC1 (stereo not given),–,79
COc1cccc(OC)c1OC(=O)C(CCSC)N1CCCCC1 (stereo not given),4,<25
COC(=O)CC(C(=O)Oc1c(OC)cccc1OC)N1CCCC1 (stereo not given),–,77
COC(=O)CC(C(=O)Oc1c(OC)cc(C)cc1OC)N1CCCC1 (stereo not given),–,52
COc1cccc(OC)c1OC(=O)C(CC(=O)N1CCCCC1)N1CCCCC1 (stereo not given),–,39
COc1cc(C)cc(OC)c1OC(=O)C(CC[S+](C)[O-])N1CCCC1 (stereo not given),–,73
COc1cccc(OC)c1OC(=O)C(CC(=O)N1CCCC1)N1CCCCCC1 (stereo not given),–,34
COc1cc(C)cc(OC)c1OC(=O)C(CC(=O)N1CCOCC1)N1CCOCC1 (stereo not given),–,>218
COCCN(CCOC)C(CCSC)C(=O)Oc1c(OC)cc(C)cc1OC (stereo not given),6.9,22.6

SMILES,IC50 [1] [µM],HD50 (Mus musculus) [µM/kg]
COc1cccc(OC)c1OC(=O)C(CCSC)N1CCOCC1 (stereo not given),–,26.1
COc1cc(C)cc(OC)c1OC(=O)C(CCSC)N1CCCC1 (stereo not given),2.7,31.4
COc1cc(C)cc(OC)c1OC(=O)C(CC(=O)N1CCCC1)N1CCCCCC1 (stereo not given),–,67
COc1cc(C)cc(OC)c1OC(=O)C(CCS(C)(=O)=O)N1CCOCC1 (stereo not given),–,108
COc1cc(C)cc(OC)c1OC(=O)C(CC(=O)N1CCCCC1)N1CCCCC1 (stereo not given),–,37.5
CCN(CC)C(=O)CC(C(=O)Oc1c(OC)cc(C)cc1OC)N1CCOCC1 (stereo not given),–,38
COc1cccc(OC)c1OC(=O)C(CCSC)N1CCCC1 (stereo not given),–,40
COc1cc(C)cc(OC)c1OC(=O)C(CC(=O)N1CCCC1)N1CCCC1 (stereo not given),–,81
COc1cc(C)cc(OC)c1OC(=O)C(CC[S+](C)[O-])N1CCOCC1 (stereo not given),–,299
COc1cccc(OC)c1OC(=O)C(CCSC)N1CCCCCCC1 (stereo not given),–,35
COc1cccc(OC)c1OC(=O)C(CCSC)N1CCCCCC1 (stereo not given),9.7,18.2
COc1cccc(OC)c1OC(=O)C(CC(=O)N1CCCC1)N1CCCC1 (stereo not given),–,102
CCN(CC)C(=O)CC(C(=O)Oc1c(OC)cccc1OC)N1CCOCC1 (stereo not given),–,117
COc1cccc(OC)c1OC(=O)C(CC(=O)N1CCOCC1)N1CCOCC1 (stereo not given),–,>225
COCCN(CCOC)C(CC(=O)OC)C(=O)Oc1c(OC)cc(C)cc1OC (stereo not given),–,48
COCCN(CCOC)C(CC(=O)OC)C(=O)Oc1c(OC)cccc1OC (stereo not given),–,48
CC[C@H](C(=O)Oc1c(OC)cc(C)cc1OC)N(CCOC)CCOC [ORG-24447],–,21.7
CC(C)c1cccc(C(C)C)c1O [PROPOFOL],–,68
